Results: publication PMC6259751, “Investigating Spectrum of Biological Activity of 4- and 5-Chloro-2-hydroxy-N-[2-(arylamino)-1-alkyl-2-oxoethyl]benzamides” (Molecules, 2011)
pIC50: −log10 of the molar value. ≈ marks a conversion by molar mass, not a printed value. Where “and” joins values, the source holds several entries; their conditions need not be identical. Identical values can stand only once. Like-named read-outs stand apart in the source and are kept apart here.

Columns and labels:
[1] = Lipophilicity determination by RP-HPLC (capacity factor k / log k); type: physicochemical; conditions: C18 column, MeOH 70% / H2O 30%, isocratic
Experimental: Hydrophobicities (log P/Clog P) of compounds 8 and 9 were calculated using two commercially available programs (ChemOffice Ultra 10.0 and ACD/LogP) and measured by means of RP-HPLC determination of capacity factors k with subsequent calculation of log k. The procedure was performed under isocratic conditions with methanol as an organic modifier in the mobile phase using an end-capped non-polar C18 stationary RP column. The results are shown in Table 1 and illustrated in Figure 1.
A Waters Alliance 2695 XE HPLC separation module and a Waters Photodiode Array Detector 2996 (Waters Corp., Milford, MA, USA) were used. A Symmetry® C18 5 μm, 4.6 × 250 mm, Part No. WAT054275 (Waters Corp., Milford, MA, USA) chromatographic column was used. The HPLC separation process was monitored by Empower™ 2 Chromatography Data Software, Waters 2009 (Waters Corp., Milford, MA, USA). A mixture of MeOH p.a. (70%) and H2O-HPLC – Mili-Q Grade (30%) was used as a mobile phase. The total flow of the column was 1.0 mL/min, injection volume, 30 μL, column temperature, 30 °C and sample temperature, 10 °C. The detection wavelength of 210 nm was chosen. The KI methanolic solution was used for the dead time (tD) determination. Retention times (tR) were measured in minutes. The capacity factors k were calculated using the Empower™ 2 Chromatography Data Software according to formula k = (tR - tD)/tD, where tR is the retention time of the solute, whereas tD denotes the dead time obtained using an unretained analyte. Log k, calculated from the capacity factor k, is used as the lipophilicity index converted to log P scale.

[2] = system: methicilin resistant Staphylococcus aureus H 5996/08; assay: In vitro antibacterial susceptibility testing (broth microdilution); conditions: MRSA, read-out: MIC MRSA
[3] = system: Mycobacterium tuberculosis MTB CNCTC My 331/88; assay: In vitro antimycobacterial evaluation; type: cell-based; conditions: IC90 value
[4] = system: Mycobacterium kansasii MK CNCTC My 235/80; assay: In vitro antimycobacterial evaluation; type: cell-based; conditions: IC90 value
[5] = system: Staphylococcus epidermidis H 6966/08; assay: In vitro antibacterial susceptibility testing (broth microdilution); conditions: read-out: MIC SE
[6] = system: Staphylococcus aureus CCM 4516/08; assay: as above; conditions: read-out: MIC SA
[7] = type: physicochemical; conditions: for precipitation in the testing medium: antimycobacterial testing medium
Experimental: (§1) The discussed amides were tested against three Mycobacteria strains. […] Activities of some benzamides, especially against M. avium and M. kansasii, considerably exceeded the activity of isoniazid (INH) used as an internal standard. The discussed compounds can be divided according to the activities against individual Mycobacteria strains, and structure-activity relationships within Group 1, Group 2 and Group 4 can be discussed.

[8] = system: Enterococcus sp. J 14365/08; assay: In vitro antibacterial susceptibility testing (broth microdilution); conditions: read-out: MIC EF
Candida tropicalis 156 = assay: In vitro antifungal susceptibility testing (broth microdilution); type: cell-based; conditions: M27-A2 for yeasts, IC80 value
[9] = system: Mycobacterium avium MA CNCTC My 330/88; assay: In vitro antimycobacterial evaluation; type: cell-based; conditions: IC90 value
[10] = system: Trichophyton mentagrophytes 445; assay: In vitro antifungal susceptibility testing (broth microdilution); type: cell-based; conditions: M38-A for moulds, IC50 value, read-out: MIC TM
[11] = system: photosynthetic electron transport (PET) in spinach chloroplasts; assay: Inhibition of photosynthetic electron transport (PET) in spinach chloroplasts; type: biochemical, Spinacia oleracea L.; conditions: DCPIP photoreduction
Experimental: Chloroplasts were prepared from spinach (Spinacia oleracea L.) according to Masarovicova and Kralova. The inhibition of photosynthetic electron transport (PET) in spinach chloroplasts was determined spectrophotometrically (Genesys 6, Thermo Scientific, USA), using an artificial electron acceptor 2,6-dichlorophenol-indophenol (DCIPP) according to Kralova et al., and the rate of photosynthetic electron transport was monitored as a photoreduction of DCPIP. The measurements were carried out in phosphate buffer (0.02 mol/L, pH 7.2) containing sucrose (0.4 mol/L), MgCl2 (0.005 mol/L) and NaCl (0.015 mol/L). The chlorophyll content was 30 mg/L in these experiments and the samples were irradiated (~100 W/m^2) from 10 cm distance with a halogen lamp (250 W) using a 4 cm water filter to prevent warming of the samples. The studied compounds were dissolved in DMSO due to their limited water solubility. […] The inhibitory efficiency of the studied compounds was expressed by IC50 values, i.e. by molar concentration of the compounds causing 50% decrease in the oxygen evolution rate relative to the untreated control.

[12] = system: three Mycobacteria strains; assay: Antimycobacterial screening, summary statements (strain not specified); type: cell-based, Mycobacterium sp.; conditions: Mycobacterium, read-out: antitubercular / antimycobacterial activity (MIC)
Experimental: as §1
The in vitro antimycobacterial activity of all prepared compounds was evaluated against Mycobacterium tuberculosis MTB CNCTC My 331/88 (identical with H37RV and ATCC 27294, dilution of the strain was 10^−3 μmol/L), Mycobacterium avium MA CNCTC My 330/88 (identical with ATCC 25291, dilution of the strain was 10^−5 μmol/L) and Mycobacteriumkansasii MK CNCTC My 235/80 (identical with ATCC 12478, dilution of the strain was 10^−4 μmol/L) in the Laboratory for mycobacterial diagnostics and TB, Institute of Public Health in Ostrava, Czech Republic. All strains were obtained from the Czech National Collection of Type Cultures (CNCTC). Antimycobacterial activities were determined in the Sula semisynthetic medium (Sevac, Prague, Czech Republic). […] Reading was carried out on a stand with a bottom magnifying mirror, macroscopically, with the use of magnifying glass. The growth in plates was evaluated after 14 and 21 days of the incubation. […]

[13] = system: photosynthetic electron transport (PET) in spinach chloroplasts; set-up: method as in earlier work; conditions: standard ref 41; cited from earlier work

Row | Compound | log k [1] | MIC ([2]; 24 h) [µM] | MIC ([2]; 48 h) [µM] | MIC ([3]; 14h) [µM] | MIC ([3]; 21h) [µM] | MIC ([4]; 14h) [µM] | MIC ([4]; 21h) [µM] | MIC ([5]; H6966/08, 24 h) [µM] | MIC ([5]; H6966/08, 48 h) [µM] | MIC ([6]; CCM4516, 24 h) [µM] | MIC ([6]; CCM4516, 48 h) [µM] | MIC ([8]; SP.J14365/08, 24 h) [µM] | MIC ([8]; SP.J14365/08, 48 h) [µM] | MIC (Candida tropicalis 156; 24h) [µM] | MIC (Candida tropicalis 156; 48h) [µM] | MIC ([9]; 14h) [µM] | MIC ([9]; 21h) [µM] | MIC ([10]; 72h) [µM] | MIC ([10]; 120h) [µM] | pIC50 [11] | other results
1 | C[C@H](NC(=O)c1cc(Cl)ccc1O)C(=O)Nc1cccc(Cl)c1 [8b] | 0.41 and 0.4166 | > 250 | > 250 | 250 (≈ 88.3 µg/mL) | > 500 | 500 (≈ 177 µg/mL) | > 500 | > 250 | > 250 | > 250 | > 250 | > 250 | > 250 | > 125 | > 125 | 500 (≈ 177 µg/mL) | > 500 | 125 (≈ 44.2 µg/mL) | 125 (≈ 44.2 µg/mL) | 4.38 | solubility in comparison with the initial esters [7]: lower solubility; precipitation in the testing medium [7]: precipitation in the testing medium
2 | O=C(N[C@H](Cc1ccccc1)C(=O)Nc1ccc(Cl)cc1)c1cc(Cl)ccc1O [8l, N-{(1R)-1-benzyl-2-[(4-chlorophenyl)amino]-2-oxoethyl}-5-chloro-2-hydroxybenzamide] | 0.7329 | > 125 | > 125 | 16 (≈ 6.87 µg/mL) | 16 (≈ 6.87 µg/mL) | 32 (≈ 13.7 µg/mL) | 32 (≈ 13.7 µg/mL) | > 125 | > 125 | > 125 | > 125 | > 125 | > 125 | 125 (≈ 53.7 µg/mL) | > 125 | 32 (≈ 13.7 µg/mL) | 32 (≈ 13.7 µg/mL) | 125 (≈ 53.7 µg/mL) | 125 (≈ 53.7 µg/mL) | 4.47 | MIC [12]: 32 µM (≈ 13.7 µg/mL)
3 | O=C(N[C@@H](Cc1ccccc1)C(=O)Nc1ccc(Cl)c(Cl)c1)c1cc(Cl)ccc1O [8q] | 0.9485 | > 500 | > 500 | 125 (≈ 58 µg/mL) | > 1000 | 250 (≈ 116 µg/mL) | > 1000 | > 500 | > 500 | > 500 | > 500 | > 500 | > 500 | > 125 | > 125 | 125 (≈ 58 µg/mL) | > 1000 | > 125 | > 125 | 4.13 | solubility in comparison with the initial esters [7]: lower solubility; precipitation in the testing medium [7]: precipitated from testing medium
4 | O=C(N[C@H](Cc1ccccc1)C(=O)Nc1ccc(Cl)c(Cl)c1)c1cc(Cl)ccc1O [8r] | 0.9408 | > 500 | > 500 | 125 (≈ 58 µg/mL) | > 1000 | 250 (≈ 116 µg/mL) | > 1000 | > 500 | > 500 | > 500 | > 500 | > 500 | > 500 | > 125 | > 125 | 125 (≈ 58 µg/mL) | > 1000 | > 125 | > 125 |  | solubility in comparison with the initial esters [7]: lower solubility; precipitation in the testing medium [7]: precipitated from testing medium
5 | C[C@H](NC(=O)c1ccc(Cl)cc1O)C(=O)Nc1ccc(Cl)cc1 [9a] | 0.4934 | 500 (≈ 177 µg/mL) | 500 (≈ 177 µg/mL) | 62.5 (≈ 22.1 µg/mL) | 62.5 (≈ 22.1 µg/mL) | 125 (≈ 44.2 µg/mL) | 125 (≈ 44.2 µg/mL) | 250 (≈ 88.3 µg/mL) | 250 (≈ 88.3 µg/mL) | 250 (≈ 88.3 µg/mL) | 500 (≈ 177 µg/mL) | 500 (≈ 177 µg/mL) | 500 (≈ 177 µg/mL) | > 250 | > 250 | 125 (≈ 44.2 µg/mL) | 125 (≈ 44.2 µg/mL) | > 250 | > 250 | 4.21 | 
6 | CC(C)[C@H](NC(=O)c1ccc(Cl)cc1O)C(=O)Nc1ccc(Cl)cc1 [9c] | 0.6839 | > 500 | > 500 | 62.5 (≈ 23.8 µg/mL) | 62.5 (≈ 23.8 µg/mL) | 62.5 (≈ 23.8 µg/mL) | 62.5 (≈ 23.8 µg/mL) | > 500 | > 500 | > 500 | > 500 | > 500 | > 500 | > 125 | > 125 | 62.5 (≈ 23.8 µg/mL) | 125 (≈ 47.7 µg/mL) | > 125 | > 125 | 4.62 | 
7 | O=C(N[C@H](Cc1ccccc1)C(=O)Nc1ccc(Cl)cc1)c1ccc(Cl)cc1O [9f, N-{(1R)-1-benzyl-2-[(4-chlorophenyl)amino]-2-oxoethyl}-4-chloro-2-hydroxybenzamide] | 0.7479 | > 500 | > 500 | 32 (≈ 13.7 µg/mL) | 32 (≈ 13.7 µg/mL) | 32 (≈ 13.7 µg/mL) | 32 (≈ 13.7 µg/mL) | > 500 | > 500 | > 500 | > 500 | > 500 | > 500 | > 125 | > 125 | 32 (≈ 13.7 µg/mL) | 32 (≈ 13.7 µg/mL) | > 125 | > 125 | 4.63 | MIC [12]: 32 µM (≈ 13.7 µg/mL)
8 | CN(C)C(=O)Nc1ccc(Cl)c(Cl)c1 [DCMU, 3-(3,4-dichlorophenyl)-1,1-dimethylurea] |  |  |  |  |  |  |  |  |  |  |  |  |  |  |  |  |  |  |  |  | pIC50 [13]: ~5.72 and 5.72
